Measurements taken from patent US10507242B2, “Combination therapy for treating breast cancer” (Genzyme Corporation, priority 2010, dated 2019).
“Also recorded” adds a separate entry of the source.

Experiments:
subcutaneous 4T1 tumors [1] = experiment: Study 2 (09-3494): primary tumor growth in the SQ 4T1 model; assay type: in vivo, Balb/c mice; conditions: for effect on SQ 4T1 primary tumor growth / tumor volume: antibody 10 mg/kg IP 3x/week, ixabepilone 3 mg/kg IV Q4Dx3, capecitabine 360 mg/kg oral QDx14, to Day 23
Source text: Treatment groups, time points, and tissues were similar to the study described above.
For proper analysis of metastasis, all mice were sacrificed on study Day 23. […] The primary tumor was bisected, with one half frozen in OCT and the other half stored in RNALATER™ for qPCR analysis. The lungs were fixed in zinc-buffered formalin for enumeration of pulmonary mets and subsequent IHC analysis.

[2] = Study 2 (09-3494): toxicity observations; assay type: in vivo, Balb/c mice; conditions: ixabepilone 3 mg/kg, capecitabine 360 mg/kg, antibody 10 mg/kg
subcutaneous 4T1 tumors [3] = experiment: Study 3 (09-4255): primary tumor growth in the SQ 4T1 model; assay type: in vivo, BALB/c mice; conditions: for effect on SQ 4T1 primary tumor growth: antibody IP 3x/week, ixabepilone 3 mg/kg IV every four days x3, capecitabine 360 mg/kg oral 14 days; for day cohort reached size endpoint (mean tumor volume 1500 mm^3): per cohort
Source text: The remaining 30 animals were included into a companion experiment to this study, looking for the effects of 1D11 on macrophage recruitment and activity (see below).
An entire cohort of mice was sacrificed when the average tumor volume for a single group within that cohort reached […] or greater.

subcutaneous 4T1 tumors [4] = experiment: Study 1 (09-3493): primary tumor growth, survival and time to endpoint in the syngeneic SQ 4T1 model; conditions: for effect on SQ 4T1 primary tumor growth: antibody 10 mg/kg IP 3x/week, ixabepilone 6 mg/kg IV Q4Dx3, capecitabine 360 mg/kg oral QDx14
Source text: • Time points: Day 0: Investigators inject 50,000 4T1 cells+[…] ® subcutaneously in the right flank • Day 3: Investigators begin 2-3×/week tumor measurements • Day 6: DCM Staff begin antibody dosing IP 3×/week • DCM Staff begin ixabepilone dosing IV Q4D×3 • DCM Staff begin capecitabine dosing by oral gavage QD×14 • Animals were sacrificed when the primary tumors reached a volume of 2000 mm^3 or prior to the study takedown if they presented with moribund conditions (lack of grooming, labored breathing, cachexia, anorexia, or lethargy).
On Day 0, 150 twelve week-old female BALB/c mice each received subcutaneous injections of 50,000 4T1 cells in […] ® in the right flank. Tumor-bearing mice were routinely monitored and regular tumor measurements 2-3×/week were conducted beginning on Day 6. Tumor volume was determined using the following formula: Tumor Volume=Length×Width^2×0.52
Six days after tumor cell injection, when tumor volumes averaged 80 mm^3, the animals were size-matched and divided into twelve treatment groups of ten mice each. […] At this point investigators were blinded to treatment group designations and therapeutic administration was initiated. All mice received 10 mg/kg of either 1D11, 13C4 or antibody vehicle administered in 100 μl IP three times per week (Table 1). Specific cohorts of mice received additional treatments of ixabepilone (6 mg/kg in 200□1 IV Q4D×3), capecitabine (360 mg/kg in 100 μl by oral gavage QD×14) or both.
Mice were sacrificed once primary tumor volumes reached 2000 mm^3 or greater or if the tumors became ulcerated>20% of the tumor's surface area, or if the animals presented with moribund conditions (lack of grooming, labored breathing, cachexia, anorexia or lethargy). Upon sacrifice, gross necropsies were performed and tumors, lungs and other tissues bearing metastases were harvested.

[5] = Study 1 (09-3493): treatment-related adverse events; assay type: in vivo; conditions: ixabepilone 6 mg/kg, capecitabine 360 mg/kg, antibody 10 mg/kg
Source text: • Time points: Day 0: Investigators inject 50,000 4T1 cells+[…] ® subcutaneously in the right flank • Day 3: Investigators begin 2-3×/week tumor measurements • Day 6: DCM Staff begin antibody dosing IP 3×/week • DCM Staff begin ixabepilone dosing IV Q4D×3 • DCM Staff begin capecitabine dosing by oral gavage QD×14 • Animals were sacrificed when the primary tumors reached a volume of 2000 mm^3 or prior to the study takedown if they presented with moribund conditions (lack of grooming, labored breathing, cachexia, anorexia, or lethargy). After sacrifice, the primary tumor was halved with one half embedded in OCT, and the other placed in zinc buffered formalin. The lungs and any other tissues bearing metastases were harvested and stored in zinc buffered formalin for enumeration of lung mets and IHC. • Tissues: Primary tumors m OCT and zinc buffered formalin, lungs harvested in zinc buffered formalin for assessment of metastasis and subsequent IHC.
Mice were sacrificed once primary tumor volumes reached 2000 mm^3 or greater or if the tumors became ulcerated>20% of the tumor's surface area, or if the animals presented with moribund conditions (lack of grooming, labored breathing, cachexia, anorexia or lethargy). Upon sacrifice, gross necropsies were performed and tumors, lungs and other tissues bearing metastases were harvested. […]

[6] = test system: 4T1 experimental metastases; experiment: 4T1 model of experimental metastasis (intracardiac injection); assay type: in vivo, mouse; conditions: 4T1 cells injected into left ventricle of the heart
Source text: 1D11 was combined with paclitaxel in both a xenograft (MDA-MB-231) breast cancer model and the syngeneic 4T1 model of breast cancer. […] The MDA-MB-231 and 4T1 models were also used to test combinatorial therapies with 1D11 and the platinum compounds cisplatin or carboplatin.

Row | SMILES | average size of the tumors at the time of study take down (subcutaneous 4T1 tumors [1]; Day 23, average of cohort (vehicle, 13C4 or 1D11 plus the chemotherapeutic)) [mm^3] | effect on SQ 4T1 primary tumor growth / tumor volume (subcutaneous 4T1 tumors [1]) | toxicity during dosing [2] | effect on SQ 4T1 primary tumor growth (subcutaneous 4T1 tumors [3]) | day cohort reached size endpoint (mean tumor volume 1500 mm^3) (subcutaneous 4T1 tumors [3]) [study day] | effect on SQ 4T1 primary tumor growth (subcutaneous 4T1 tumors [4]) | treatment-related toxicities [5] | survival (subcutaneous 4T1 tumors [4]; same dosing, sacrifice at tumor volume 2000 mm^3 or moribund) | inhibition of metastases [6]
1 | CCCCCOC(=O)Nc1nc(=O)n([C@@H]2O[C@H](C)[C@@H](O)[C@H]2O)cc1F [capecitabine] | ~700 | trend towards inhibited growth of the primary tumors; also recorded: Inhibition of tumor growth | no toxicity issues observed | very modest tumor growth inhibition; also recorded: Inhibition of tumor growth; also recorded: inhibited 4T1 tumor growth slightly | 27 | did inhibit tumor growth; also recorded: Inhibition of tumor growth; also recorded: inhibited 4T1 tumor growth but was not as efficacious as ixabepilone | – | – | –
2 | C/C(=C\c1csc(C)n1)[C@@H]1C[C@@H]2O[C@]2(C)CCC[C@H](C)[C@H](O)[C@@H](C)C(=O)C(C)(C)[C@@H](O)CC(=O)N1 [ixabepilone] | – | significant reduction in tumor volume; also recorded: Inhibition of tumor growth | no toxicity issues observed; also recorded: no animals in the study displayed signs of toxicity | most efficacious at inhibiting 4T1 tumor growth as a monotherapy; also recorded: Inhibition of tumor growth | 29 | most efficacious at inhibiting 4T1 tumor growth compared to either antibody therapy or capecitabine; also recorded: Inhibition of tumor growth | some peripheral neuropathy | greater than that of either the antibody or the capecitabine cohorts | –
3 | N.N.[Cl][Pt][Cl] [cisplatin] | – | – | – | – | – | – | – | – | able to inhibit metastases particularly to the bone
